Measurements as given in patent EP4745118A1, “HYDROXAMIC ACID COMPOUND OR PHARMACEUTICALLY ACCEPTABLE SALT THEREOF, AND USE THEREOF AND PREPARATION METHOD THEREFOR” (priority 2023, dated 2025).
Values after ≈ are worked out from the molar mass of the structure shown. Like-named read-outs stand apart in the source and are kept apart here.

Legend:
Test in all cases: In vitro antibacterial activity, agar dilution method (MIC)
Assay type in all cases: cell-based
Citrobacter freundii = tested on: Citrobacter freundii
Procedure: (§1) According to the relevant operating procedures of the Clinical Laboratory Standards Institute (CLSI) in the United States, an antimicrobial susceptibility testing was conducted using the agar dilution method. […]. The agar was allowed to solidify and set aside for later use.
(§2) The test bacteria were propagated in broth and adjusted to a turbidity of 0.5 McFarland (approximately 1-2 × 10^8 CFU/mL) using a turbidimeter before inoculation. The 0.5 McFarland bacterial solution was then diluted 10-fold in broth (approximately 1-2 × 10^7 CFU/mL). A multipoint inoculator was used to inoculate the above bacterial solution onto a series of plates containing different concentrations of drugs (with an inoculation amount of approximately 10^4 CFU per inoculation site). After incubation at a constant temperature of 35°C for 18 hours, results were observed. The minimum concentration of drugs contained in sterile growth plates was determined as the Minimal Inhibitory Concentration (MIC).

Enterobacter aerogenes = tested on: Enterobacter aerogenes
Procedure: as §1, §2

Escherichia coli = conditions: agar dilution, 35°C
Procedure: as §1, §2

Klebsiella pneumoniae = conditions: agar dilution, 35°C
Procedure: as §1, §2

Pantoea agglomerans = tested on: Pantoea agglomerans
Procedure: as §1, §2

Proteus mirabilis = tested on: Proteus mirabilis
Procedure: as §1, §2

Proteus vulgaris = tested on: Proteus vulgaris
Procedure: as §1, §2

Serratia marcescens = tested on: Serratia marcescens
Procedure: as §1, §2

Enterobacter cloacae = tested on: Enterobacter cloacae
Procedure: According to the relevant operating procedures of the Clinical Laboratory Standards Institute (CLSI) in the United States, an antimicrobial susceptibility testing was conducted using the agar dilution method. […] The agar was allowed to solidify and set aside for later use.
as §2

Shigella flexneri = conditions: 18 hours
Procedure: According to the relevant operating procedures of the Clinical Laboratory Standards Institute (CLSI) in the United States, an antimicrobial susceptibility testing was conducted using the agar dilution method. A 1920 µg/mL stock solution was serially diluted twofold with sterile water to obtain dilutions of 960, 480, 240, 120, 60, 30, 15, 7.5, 3.75, 1.88, 0.94, 0.47 µg/mL, and 1 mL of the dilution was taken respectively from the dilutions with different concentrations and added to a Petri dish, to which 14 mL of melted MH agar medium was added and mixed thoroughly, and the final concentration of the drug in the petri dish is 128, 64, 32, 16, 8, 4, 2, 1, 0.5, 0.25, 0.12, 0.06, and 0.03 µ g/mL, respectively. The agar was allowed to solidify and set aside for later use.
as §2

Pseudomonas aeruginosa = tested on: Pseudomonas aeruginosa
Procedure: as §1, §2

[1] = ATCC43864, Citrobacter freundii ATCC 43864, agar dilution, 35°C, 18 hours, read-out: MIC
[2] = Klebsiella aerogenes, ATCC13048, Enterobacter aerogenes ATCC 13048, agar dilution, 35°C, 18 hours, read-out: MIC
[3] = Escherichia coli, 18 h, Escherichia coli 13-43 (mcr-1), 18 hours, read-out: MIC
[4] = Escherichia coli, 18 h, Escherichia coli 17-R28 (CRE, NDM-1-producing), 18 hours, read-out: MIC
[5] = Escherichia coli, ATCC2469, 18 h, Escherichia coli ATCC 2469 (CRE, NDM-1-producing), 18 hours, read-out: MIC
[6] = Escherichia coli, ATCC35218, 18 h, Escherichia coli ATCC 35218 (ESBLs-producing), 18 hours, read-out: MIC
[7] = Klebsiella pneumoniae, 18 h, Klebsiella pneumoniae 09-20 (mcr-1), 18 hours, read-out: MIC
[8] = Klebsiella pneumoniae, 18 h, Klebsiella pneumoniae 17-R27 (CRE), 18 hours, read-out: MIC
[9] = Klebsiella pneumoniae, 18 h, Klebsiella pneumoniae 18-8 (ESBLs-producing), 18 hours, read-out: MIC
[10] = Klebsiella pneumoniae, ATCC700603, 18 h, Klebsiella pneumoniae ATCC 700603 (ESBLs-producing), 18 hours, read-out: MIC
[11] = Klebsiella pneumoniae, ATCCBAA2146, 18 h, Klebsiella pneumoniae ATCC BAA-2146 (CRE, NDM-1-producing), 18 hours, read-out: MIC
[12] = ATCC27993, Pantoea agglomerans ATCC 27993, agar dilution, 35°C, 18 hours, read-out: MIC
[13] = ATCC49565, Proteus mirabilis ATCC 49565, agar dilution, 35°C, 18 hours, read-out: MIC
[14] = ATCC29905, Proteus vulgaris ATCC 29905, agar dilution, 35°C, 18 hours, read-out: MIC
[15] = ATCC21074, Serratia marcescens ATCC 21074, agar dilution, 35°C, 18 hours, read-out: MIC
[16] = Enterobacter cloacae CDC1000654 (NDM-1-producing), agar dilution, 35°C, 18 hours, read-out: MIC
[17] = ATCC12022, Shigella flexneri ATCC 12022, 35°C, read-out: MIC
[18] = Klebsiella pneumoniae, ATCCBAA2146, 18 h, Klebsiella pneumoniae ATCC BAA-2146 (CRE, NDM-1-producing), 18 hours
[19] = Pseudomonas aeruginosa PAO1, agar dilution, 35°C, 18 hours, read-out: MIC
[20] = Escherichia coli, 18 h, Escherichia coli 17-R28 (CRE, NDM-1-producing)

## C[C@@H](O)[C@H]1C(=O)N2C(C(=O)O)=C(SCCN=CN)C[C@H]12 [Imipenem]
Citrobacter freundii; [1]
  MIC: 0.25 µg/mL (≈ 0.835 µM)
Enterobacter aerogenes; [2]
  MIC: 0.25 µg/mL (≈ 0.835 µM)
Escherichia coli; [3]
  MIC: 0.12 µg/mL (≈ 0.401 µM)
Escherichia coli; [4]
  MIC: > 128 µg/mL
Escherichia coli; [5]
  MIC: 8 µg/mL (≈ 26.7 µM)
Escherichia coli; [6]
  MIC: 0.12 µg/mL (≈ 0.401 µM)
Klebsiella pneumoniae; [7]
  MIC: 0.12 µg/mL (≈ 0.401 µM)
Klebsiella pneumoniae; [8]
  MIC: 0.12 µg/mL (≈ 0.401 µM)
Klebsiella pneumoniae; [9]
  MIC: 0.12 µg/mL (≈ 0.401 µM)
Klebsiella pneumoniae; [10]
  MIC: 0.25 µg/mL (≈ 0.835 µM)
Klebsiella pneumoniae; [11]
  MIC: 32 µg/mL (≈ 107 µM)
Pantoea agglomerans; [12]
  MIC: 0.12 µg/mL (≈ 0.401 µM)
Proteus mirabilis; [13]
  MIC: 1 µg/mL (≈ 3.34 µM)
Proteus vulgaris; [14]
  MIC: 0.25 µg/mL (≈ 0.835 µM)
Serratia marcescens; [15]
  MIC: 0.5 µg/mL (≈ 1.67 µM)
Enterobacter cloacae; [16]
  MIC: 2 µg/mL (≈ 6.68 µM)
Shigella flexneri; [17]
  MIC: 0.12 µg/mL (≈ 0.401 µM)

## C[C@H]1COc2c(N3CCN(C)CC3)c(F)cc3c(=O)c(C(=O)O)cn1c23 [Levofloxacin]
Citrobacter freundii; [1]
  MIC: ≤ 0.03 µg/mL
Enterobacter aerogenes; [2]
  MIC: 0.06 µg/mL (≈ 0.166 µM)
Escherichia coli; [3]
  MIC: 64 µg/mL (≈ 177 µM)
Escherichia coli; [4]
  MIC: 8 µg/mL (≈ 22.1 µM)
Escherichia coli; [5]
  MIC: 16 µg/mL (≈ 44.3 µM)
Escherichia coli; [6]
  MIC: ≤ 0.03 µg/mL
Klebsiella pneumoniae; [7]
  MIC: 16 µg/mL (≈ 44.3 µM)
Klebsiella pneumoniae; [8]
  MIC: 16 µg/mL (≈ 44.3 µM)
Klebsiella pneumoniae; [9]
  MIC: 1 µg/mL (≈ 2.77 µM)
Klebsiella pneumoniae; [10]
  MIC: 1 µg/mL (≈ 2.77 µM)
Klebsiella pneumoniae; [18]
  MIC: > 128 µg/mL
Pantoea agglomerans; [12]
  MIC: 0.06 µg/mL (≈ 0.166 µM)
Proteus mirabilis; [13]
  MIC: 0.12 µg/mL (≈ 0.332 µM)
Proteus vulgaris; [14]
  MIC: ≤ 0.03 µg/mL
Pseudomonas aeruginosa; [19]
  MIC: 0.5 µg/mL (≈ 1.38 µM)
Serratia marcescens; [15]
  MIC: 0.25 µg/mL (≈ 0.692 µM)
Enterobacter cloacae; [16]
  MIC: 64 µg/mL (≈ 177 µM)
Shigella flexneri; [17]
  MIC: ≤ 0.03 µg/mL

## C[C@@H](O)[C@H]1C(=O)N2C(C(=O)O)=C(S[C@@H]3CN[C@H](C(=O)N(C)C)C3)[C@H](C)[C@H]12 [Meropenem]
Citrobacter freundii; [1]
  MIC: ≤ 0.03 µg/mL
Enterobacter aerogenes; [2]
  MIC: 0.06 µg/mL (≈ 0.156 µM)
Escherichia coli; [3]
  MIC: ≤ 0.03 µg/mL
Escherichia coli; [20]
  MIC: 128 µg/mL (≈ 334 µM)
Escherichia coli; [5]
  MIC: 8 µg/mL (≈ 20.9 µM)
Escherichia coli; [6]
  MIC: ≤ 0.03 µg/mL
Klebsiella pneumoniae; [7]
  MIC: ≤ 0.03 µg/mL
Klebsiella pneumoniae; [8]
  MIC: 0.25 µg/mL (≈ 0.652 µM)
Klebsiella pneumoniae; [9]
  MIC: ≤ 0.03 µg/mL
Klebsiella pneumoniae; [10]
  MIC: ≤ 0.03 µg/mL
Klebsiella pneumoniae; [11]
  MIC: 32 µg/mL (≈ 83.4 µM)
Pantoea agglomerans; [12]
  MIC: ≤ 0.03 µg/mL
Proteus mirabilis; [13]
  MIC: 0.06 µg/mL (≈ 0.156 µM)
Proteus vulgaris; [14]
  MIC: ≤ 0.03 µg/mL
Pseudomonas aeruginosa; [19]
  MIC: 2 µg/mL (≈ 5.22 µM)
Serratia marcescens; [15]
  MIC: 0.06 µg/mL (≈ 0.156 µM)
Enterobacter cloacae; [16]
  MIC: 4 µg/mL (≈ 10.4 µM)
Shigella flexneri; [17]
  MIC: ≤ 0.03 µg/mL

## CN(C)c1cc(NC(=O)CNC(C)(C)C)c(O)c2c1C[C@H]1C[C@H]3[C@H](N(C)C)C(O)=C(C(N)=O)C(=O)[C@@]3(O)C(O)=C1C2=O [Tigecycline]
Citrobacter freundii; Citrobacter freundii, ATCC43864, 18 h
  MIC: 1 µg/mL (≈ 1.71 µM)
Enterobacter aerogenes; Klebsiella aerogenes, ATCC13048, 18 h
  MIC: 1 µg/mL (≈ 1.71 µM)
Escherichia coli; Escherichia coli, 18 h, Escherichia coli 13-43 (mcr-1)
  MIC: 1 µg/mL (≈ 1.71 µM)
Escherichia coli; [20]
  MIC: 0.12 µg/mL (≈ 0.205 µM)
Escherichia coli; Escherichia coli, ATCC2469, 18 h, Escherichia coli ATCC 2469 (CRE, NDM-1-producing), 18 hours
  MIC: 0.5 µg/mL (≈ 0.854 µM)
Escherichia coli; [6]
  MIC: 0.12 µg/mL (≈ 0.205 µM)
Klebsiella pneumoniae; Klebsiella pneumoniae, 18 h, Klebsiella pneumoniae 09-20 (mcr-1)
  MIC: 2 µg/mL (≈ 3.41 µM)
Klebsiella pneumoniae; Klebsiella pneumoniae, 18 h, Klebsiella pneumoniae 17-R27 (CRE)
  MIC: 2 µg/mL (≈ 3.41 µM)
Klebsiella pneumoniae; [9]
  MIC: 2 µg/mL (≈ 3.41 µM)
Klebsiella pneumoniae; [10]
  MIC: 8 µg/mL (≈ 13.7 µM)
Klebsiella pneumoniae; [18]
  MIC: 8 µg/mL (≈ 13.7 µM)
Pantoea agglomerans; Pantoea agglomerans, ATCC27993, 18 h
  MIC: 0.5 µg/mL (≈ 0.854 µM)
Proteus mirabilis; Proteus mirabilis, ATCC49565, 18 h
  MIC: 4 µg/mL (≈ 6.83 µM)
Proteus vulgaris; Proteus vulgaris, ATCC29905, 18 h
  MIC: 2 µg/mL (≈ 3.41 µM)
Pseudomonas aeruginosa; Pseudomonas aeruginosa, PAO1, 18 h
  MIC: 16 µg/mL (≈ 27.3 µM)
Serratia marcescens; Serratia marcescens, ATCC21074, 18 h
  MIC: 2 µg/mL (≈ 3.41 µM)
Enterobacter cloacae; Enterobacter cloacae, 18 h
  MIC: 8 µg/mL (≈ 13.7 µM)
Shigella flexneri; [17]
  MIC: 0.12 µg/mL (≈ 0.205 µM)

## Polymyxin B
Citrobacter freundii; Citrobacter freundii ATCC 43864, agar dilution, 35°C, 18 hours
  MIC: 2 µg/mL
Enterobacter aerogenes; Enterobacter aerogenes ATCC 13048, agar dilution, 35°C, 18 hours
  MIC: 1 µg/mL
Escherichia coli; Escherichia coli 13-43 (mcr-1), 18 hours
  MIC: 8 µg/mL
Escherichia coli; Escherichia coli 17-R28 (CRE, NDM-1-producing), 18 hours
  MIC: 0.5 µg/mL
Escherichia coli; Escherichia coli ATCC 2469 (CRE, NDM-1-producing), 18 hours
  MIC: 1 µg/mL
Escherichia coli; Escherichia coli ATCC 35218 (ESBLs-producing), 18 hours
  MIC: 0.5 µg/mL
Klebsiella pneumoniae; Klebsiella pneumoniae 09-20 (mcr-1), 18 hours
  MIC: 16 µg/mL
Klebsiella pneumoniae; Klebsiella pneumoniae 17-R27 (CRE), 18 hours
  MIC: 16 µg/mL
Klebsiella pneumoniae; Klebsiella pneumoniae 18-8 (ESBLs-producing), 18 hours
  MIC: 1 µg/mL
Klebsiella pneumoniae; Klebsiella pneumoniae ATCC 700603 (ESBLs-producing), 18 hours
  MIC: 1 µg/mL
Klebsiella pneumoniae; Klebsiella pneumoniae ATCC BAA-2146 (CRE, NDM-1-producing), 18 hours
  MIC: 1 µg/mL
Pantoea agglomerans; Pantoea agglomerans ATCC 27993, agar dilution, 35°C, 18 hours
  MIC: 1 µg/mL
Proteus mirabilis; Proteus mirabilis ATCC 49565, agar dilution, 35°C, 18 hours
  MIC: >128 µg/mL
Proteus vulgaris; Proteus vulgaris ATCC 29905, agar dilution, 35°C, 18 hours
  MIC: >128 µg/mL
Pseudomonas aeruginosa; Pseudomonas aeruginosa PAO1, agar dilution, 35°C, 18 hours
  MIC: 2 µg/mL
Serratia marcescens; Serratia marcescens ATCC 21074, agar dilution, 35°C, 18 hours
  MIC: >128 µg/mL
Enterobacter cloacae; Enterobacter cloacae CDC1000654 (NDM-1-producing), agar dilution, 35°C, 18 hours
  MIC: 2 µg/mL
Shigella flexneri; Shigella flexneri ATCC 12022, 35°C
  MIC: 1 µg/mL
